Literature values in US20050107425A1, “Treatment of attention defecit hyperactivity disorder” (Pfizer Inc, priority 2002, published 2005).

Assays:
[1] = clinical trials of Alzheimer's disease and attention-deficit disorders
5HT3R = target: T1, 5HT3R (Homo sapiens, UniProt P46098)
T1 sequence (P46098 24-478): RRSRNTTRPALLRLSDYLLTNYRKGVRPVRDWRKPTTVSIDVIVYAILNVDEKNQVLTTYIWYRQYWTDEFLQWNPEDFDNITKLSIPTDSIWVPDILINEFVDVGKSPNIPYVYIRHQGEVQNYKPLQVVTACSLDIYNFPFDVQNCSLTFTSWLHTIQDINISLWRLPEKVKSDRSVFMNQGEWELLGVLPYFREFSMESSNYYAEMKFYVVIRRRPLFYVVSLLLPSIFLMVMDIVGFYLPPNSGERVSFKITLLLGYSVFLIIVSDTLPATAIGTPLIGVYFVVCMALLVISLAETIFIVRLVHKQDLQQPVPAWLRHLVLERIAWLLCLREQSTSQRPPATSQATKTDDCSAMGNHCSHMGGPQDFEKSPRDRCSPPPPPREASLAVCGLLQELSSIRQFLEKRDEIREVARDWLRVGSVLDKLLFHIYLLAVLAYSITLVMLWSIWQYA

α7 nAChR = α7 nAChR (Homo sapiens, UniProt P36544)
Sequence of α7 nAChR (P36544 23-502): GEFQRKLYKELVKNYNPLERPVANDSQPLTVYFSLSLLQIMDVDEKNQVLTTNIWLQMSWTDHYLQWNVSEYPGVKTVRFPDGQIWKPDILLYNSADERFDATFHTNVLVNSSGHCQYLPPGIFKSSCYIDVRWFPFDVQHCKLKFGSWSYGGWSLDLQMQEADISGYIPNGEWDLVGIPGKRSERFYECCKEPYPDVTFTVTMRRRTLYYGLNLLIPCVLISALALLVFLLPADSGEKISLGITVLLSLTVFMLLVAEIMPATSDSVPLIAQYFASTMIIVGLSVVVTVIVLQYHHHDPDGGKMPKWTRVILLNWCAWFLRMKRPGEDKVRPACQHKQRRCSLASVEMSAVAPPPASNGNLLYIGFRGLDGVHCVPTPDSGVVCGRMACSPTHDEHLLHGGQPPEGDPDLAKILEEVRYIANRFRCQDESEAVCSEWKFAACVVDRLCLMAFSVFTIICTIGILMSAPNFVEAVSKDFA

In the case of `Cc1cc([C@@H]2CCCN2C)on1` [ABT-418], the “cognition and attention in clinical trials” value [1] is listed as “improves cognition and attention”.
In the case of `COc1ccc(/C=C2\CCCN=C2c2cccnc2)c(OC)c1` [GTS-21], the “activity at the 5HT3R” value (5HT3R) is given as “little activity”.
In the case of `Cc1nccn1CC1CCc2c(c3ccccc3n2C)C1=O` (stereo not drawn) [Ondansetron], the “activity at the α7 nAChR” value (α7 nAChR) is given as “little activity”.
